Assay results taken from patent US8741896B2, “Pyrazolopyrimidine derivatives” (Merck Patent GmbH, priority 2009, dated 2014).

What was measured:
[1] = target: PI3Kδ (Homo sapiens, UniProt O00329); assay: PI3 kinase inhibition bioassay (PI3Kδ); format: biochemical
[2] = target: PI3Kγ (Homo sapiens, UniProt P48736); assay: PI3 kinase inhibition bioassay (PI3Kγ); format: biochemical
[3] = target: PI3Kβ (Homo sapiens, UniProt P42338); assay: PI3 kinase inhibition bioassay (PI3Kβ); format: biochemical
[4] = target: PI3Kα (Homo sapiens, UniProt P42336); assay: PI3 kinase inhibition bioassay (PI3Kα); format: biochemical
[5] = target: CK2 protein kinase (Homo sapiens, UniProt P68400); details: cited from earlier work

PI3Kδ, sequence (O00329 whole entry, species assumed): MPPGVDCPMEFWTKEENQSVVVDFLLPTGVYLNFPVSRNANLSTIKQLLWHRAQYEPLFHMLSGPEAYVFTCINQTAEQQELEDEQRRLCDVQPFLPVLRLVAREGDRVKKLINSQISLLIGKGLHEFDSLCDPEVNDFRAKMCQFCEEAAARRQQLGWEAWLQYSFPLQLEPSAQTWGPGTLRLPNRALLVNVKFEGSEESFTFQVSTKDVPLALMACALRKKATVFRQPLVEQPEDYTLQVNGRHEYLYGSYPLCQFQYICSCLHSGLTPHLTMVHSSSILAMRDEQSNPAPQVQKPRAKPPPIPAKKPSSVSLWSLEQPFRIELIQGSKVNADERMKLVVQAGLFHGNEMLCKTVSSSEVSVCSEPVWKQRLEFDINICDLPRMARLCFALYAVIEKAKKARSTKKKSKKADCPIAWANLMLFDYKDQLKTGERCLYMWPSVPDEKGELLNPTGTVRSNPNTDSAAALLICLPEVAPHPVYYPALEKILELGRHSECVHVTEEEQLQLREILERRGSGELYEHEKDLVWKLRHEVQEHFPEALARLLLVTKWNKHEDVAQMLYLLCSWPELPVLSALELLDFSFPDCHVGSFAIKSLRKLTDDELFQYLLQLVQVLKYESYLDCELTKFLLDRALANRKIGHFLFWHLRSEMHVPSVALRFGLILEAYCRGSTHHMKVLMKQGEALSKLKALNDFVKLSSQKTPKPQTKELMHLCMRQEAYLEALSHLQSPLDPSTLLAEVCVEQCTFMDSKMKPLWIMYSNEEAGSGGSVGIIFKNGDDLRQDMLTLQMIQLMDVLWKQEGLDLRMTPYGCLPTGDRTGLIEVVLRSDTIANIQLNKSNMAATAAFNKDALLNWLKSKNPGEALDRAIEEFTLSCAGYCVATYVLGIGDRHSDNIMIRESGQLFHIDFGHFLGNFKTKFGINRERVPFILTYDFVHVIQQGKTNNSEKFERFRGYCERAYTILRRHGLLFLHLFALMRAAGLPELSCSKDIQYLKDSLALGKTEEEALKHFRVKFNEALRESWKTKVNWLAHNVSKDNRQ
PI3Kδ, sequence (P27986 whole entry partner, species assumed): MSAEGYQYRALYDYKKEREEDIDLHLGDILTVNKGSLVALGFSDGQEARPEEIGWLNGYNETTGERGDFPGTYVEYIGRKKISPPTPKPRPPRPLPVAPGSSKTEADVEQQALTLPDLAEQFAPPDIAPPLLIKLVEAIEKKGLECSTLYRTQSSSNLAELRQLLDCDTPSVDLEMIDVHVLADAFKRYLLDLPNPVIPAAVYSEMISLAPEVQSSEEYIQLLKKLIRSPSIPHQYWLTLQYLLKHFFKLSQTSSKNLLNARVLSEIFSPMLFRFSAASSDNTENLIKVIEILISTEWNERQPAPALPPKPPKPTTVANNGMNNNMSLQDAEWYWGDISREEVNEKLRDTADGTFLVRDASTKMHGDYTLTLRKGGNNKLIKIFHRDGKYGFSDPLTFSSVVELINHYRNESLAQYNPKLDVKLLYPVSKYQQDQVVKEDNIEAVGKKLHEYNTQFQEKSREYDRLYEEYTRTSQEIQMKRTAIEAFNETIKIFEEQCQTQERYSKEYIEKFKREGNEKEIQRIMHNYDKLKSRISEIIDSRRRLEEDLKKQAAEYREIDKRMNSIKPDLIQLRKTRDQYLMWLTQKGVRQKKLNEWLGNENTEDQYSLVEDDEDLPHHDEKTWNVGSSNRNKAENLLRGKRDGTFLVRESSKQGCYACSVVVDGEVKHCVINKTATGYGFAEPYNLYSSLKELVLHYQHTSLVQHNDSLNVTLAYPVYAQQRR
PI3Kα, sequence (P42336 whole entry, species assumed): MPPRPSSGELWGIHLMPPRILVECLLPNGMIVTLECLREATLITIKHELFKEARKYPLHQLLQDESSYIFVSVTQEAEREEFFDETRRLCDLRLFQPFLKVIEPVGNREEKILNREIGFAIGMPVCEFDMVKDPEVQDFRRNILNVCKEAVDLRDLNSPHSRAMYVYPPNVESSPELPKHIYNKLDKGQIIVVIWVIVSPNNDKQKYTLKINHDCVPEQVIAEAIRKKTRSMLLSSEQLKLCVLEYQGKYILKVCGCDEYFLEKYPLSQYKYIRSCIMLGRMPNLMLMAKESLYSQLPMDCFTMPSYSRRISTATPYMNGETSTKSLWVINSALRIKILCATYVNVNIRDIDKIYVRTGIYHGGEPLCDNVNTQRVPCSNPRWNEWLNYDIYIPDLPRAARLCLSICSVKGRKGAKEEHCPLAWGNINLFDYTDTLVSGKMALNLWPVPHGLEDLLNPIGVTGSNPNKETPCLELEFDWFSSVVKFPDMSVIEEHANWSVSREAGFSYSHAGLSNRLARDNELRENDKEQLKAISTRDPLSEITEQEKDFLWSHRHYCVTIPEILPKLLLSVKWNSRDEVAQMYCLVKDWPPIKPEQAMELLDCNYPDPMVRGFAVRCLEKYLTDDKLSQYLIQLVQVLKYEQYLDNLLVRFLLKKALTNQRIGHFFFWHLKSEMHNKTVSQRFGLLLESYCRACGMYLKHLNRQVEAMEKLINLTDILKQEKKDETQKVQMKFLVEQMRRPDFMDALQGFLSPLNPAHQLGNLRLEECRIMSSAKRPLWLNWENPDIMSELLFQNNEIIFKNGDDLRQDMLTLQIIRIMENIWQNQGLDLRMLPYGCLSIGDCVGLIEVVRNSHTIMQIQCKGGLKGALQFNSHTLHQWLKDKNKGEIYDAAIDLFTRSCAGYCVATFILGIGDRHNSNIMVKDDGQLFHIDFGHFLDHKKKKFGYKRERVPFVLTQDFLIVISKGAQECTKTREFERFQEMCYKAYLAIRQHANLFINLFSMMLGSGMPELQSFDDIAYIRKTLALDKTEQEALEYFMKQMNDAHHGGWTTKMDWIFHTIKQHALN
PI3Kα, sequence (P27986 whole entry partner, species assumed): as the sequence (P27986 whole entry partner, species assumed) above
PI3Kγ, sequence (P48736 whole entry, species assumed): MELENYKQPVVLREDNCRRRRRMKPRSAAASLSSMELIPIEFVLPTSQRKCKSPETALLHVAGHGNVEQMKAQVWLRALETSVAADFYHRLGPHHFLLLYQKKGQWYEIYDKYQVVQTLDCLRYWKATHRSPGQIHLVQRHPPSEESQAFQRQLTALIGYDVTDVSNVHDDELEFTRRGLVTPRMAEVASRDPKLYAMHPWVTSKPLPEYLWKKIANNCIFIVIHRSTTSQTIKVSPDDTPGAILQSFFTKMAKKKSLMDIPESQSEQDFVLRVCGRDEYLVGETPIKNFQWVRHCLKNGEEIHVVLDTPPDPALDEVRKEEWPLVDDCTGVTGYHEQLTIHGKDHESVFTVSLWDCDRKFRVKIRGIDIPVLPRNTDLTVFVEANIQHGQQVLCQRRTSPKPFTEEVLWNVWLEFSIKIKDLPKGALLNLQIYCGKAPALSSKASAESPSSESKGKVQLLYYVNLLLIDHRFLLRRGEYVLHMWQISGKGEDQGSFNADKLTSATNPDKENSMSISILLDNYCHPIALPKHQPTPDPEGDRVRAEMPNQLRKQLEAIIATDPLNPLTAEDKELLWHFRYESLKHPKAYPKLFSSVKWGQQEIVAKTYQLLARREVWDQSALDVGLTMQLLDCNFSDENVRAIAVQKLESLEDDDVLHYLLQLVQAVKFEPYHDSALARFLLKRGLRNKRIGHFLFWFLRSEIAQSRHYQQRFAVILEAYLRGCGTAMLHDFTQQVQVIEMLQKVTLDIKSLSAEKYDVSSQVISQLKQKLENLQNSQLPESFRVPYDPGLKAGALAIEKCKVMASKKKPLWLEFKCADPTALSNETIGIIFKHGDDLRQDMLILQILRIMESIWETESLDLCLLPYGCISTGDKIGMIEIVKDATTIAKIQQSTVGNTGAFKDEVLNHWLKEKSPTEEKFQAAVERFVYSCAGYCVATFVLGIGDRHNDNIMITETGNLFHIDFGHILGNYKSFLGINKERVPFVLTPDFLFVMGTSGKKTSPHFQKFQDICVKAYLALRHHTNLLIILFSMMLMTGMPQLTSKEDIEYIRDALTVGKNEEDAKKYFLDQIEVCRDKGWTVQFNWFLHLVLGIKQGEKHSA
PI3Kβ, sequence (P42338 whole entry, species assumed): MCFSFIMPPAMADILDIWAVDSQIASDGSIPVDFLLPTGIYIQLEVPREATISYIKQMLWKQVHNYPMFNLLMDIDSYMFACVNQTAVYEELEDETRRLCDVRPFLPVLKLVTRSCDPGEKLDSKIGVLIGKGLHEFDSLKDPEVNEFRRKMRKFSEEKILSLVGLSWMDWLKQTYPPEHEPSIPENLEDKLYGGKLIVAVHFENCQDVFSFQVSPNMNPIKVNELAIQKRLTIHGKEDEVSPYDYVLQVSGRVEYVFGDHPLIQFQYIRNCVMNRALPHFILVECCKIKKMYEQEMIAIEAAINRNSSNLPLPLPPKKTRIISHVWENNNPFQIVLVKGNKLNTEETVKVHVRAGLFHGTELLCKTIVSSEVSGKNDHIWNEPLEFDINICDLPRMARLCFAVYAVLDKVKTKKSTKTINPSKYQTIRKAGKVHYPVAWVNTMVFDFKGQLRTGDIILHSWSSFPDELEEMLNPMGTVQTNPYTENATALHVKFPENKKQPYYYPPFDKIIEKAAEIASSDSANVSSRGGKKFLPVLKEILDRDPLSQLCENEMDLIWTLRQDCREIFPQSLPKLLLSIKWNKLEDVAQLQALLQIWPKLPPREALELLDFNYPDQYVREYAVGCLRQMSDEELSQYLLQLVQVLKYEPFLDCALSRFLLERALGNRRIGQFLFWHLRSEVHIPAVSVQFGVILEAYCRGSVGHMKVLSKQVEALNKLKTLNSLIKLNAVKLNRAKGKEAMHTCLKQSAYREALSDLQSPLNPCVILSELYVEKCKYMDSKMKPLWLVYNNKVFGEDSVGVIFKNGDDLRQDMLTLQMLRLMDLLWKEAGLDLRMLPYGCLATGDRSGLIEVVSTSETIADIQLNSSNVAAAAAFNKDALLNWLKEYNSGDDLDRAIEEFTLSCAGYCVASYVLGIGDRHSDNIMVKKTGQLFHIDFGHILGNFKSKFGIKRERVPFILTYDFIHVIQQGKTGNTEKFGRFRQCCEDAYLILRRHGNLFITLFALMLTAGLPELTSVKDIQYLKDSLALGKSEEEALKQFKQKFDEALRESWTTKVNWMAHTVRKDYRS
PI3Kβ, sequence (P27986 whole entry partner, species assumed): as the sequence (P27986 whole entry partner, species assumed) above

Row | IC50 [1] | IC50 [2] | IC50 [3] | IC50 [4] | Compound | IC50 [5]
1 | 0.1 to 10 µM | 0.1 to 10 µM | 0.1 to 10 µM | 0.1 to 10 µM | Cn1ncc2c(-c3cccc(O)c3)nc(N3CCOCC3)nc21 [Compound A1, 3-(1-methyl-6-morpholin-4-yl-1H-pyrazolo[3,4-d]pyrimidin-4-yl)phenol] | –
2 | 0.1 to 10 µM | 0.1 to 10 µM | 0.1 to 10 µM | 0.1 to 10 µM | Cn1ncc2c(-c3cccc(CO)c3)nc(N3CCOCC3)nc21 [Compound A33, [3-(1-methyl-6-morpholin-4-yl-1H-pyrazolo[3,4-d]pyrimidin-4-yl)phenyl]methanol] | –
3 | > 10 µM | 0.1 to 10 µM | > 10 µM | > 10 µM | Cn1ncc2c(-c3ccc4cc[nH]c4c3)nc(N3CCOCC3)nc21 [Compound A65, 4-(1H-indol-6-yl)-1-methyl-6-morpholin-4-yl-1H-pyrazolo-[3,4-d]pyrimidine] | –
4 | 0.1 to 10 µM | > 10 µM | 0.1 to 10 µM | 0.1 to 10 µM | Cn1ncc2c(-c3cccc4[nH]ccc34)nc(N3CCOCC3)nc21 [Compound A97, 4-(1H-indol-4-yl)-1-methyl-6-morpholin-4-yl-1H-pyrazolo[3,4-d]pyrimidine] | –
5 | 0.1 to 10 µM | 0.1 to 10 µM | 0.1 to 10 µM | 0.1 to 10 µM | Cn1ncc2c(-c3ccc4[nH]cnc4c3)nc(N3CCOCC3)nc21 [Compound A129, 4-(1H-benzimidazol-5-yl)-1-methyl-6-morpholin-4-yl-1H-pyrazolo[3,4-d]pyrimidine] | –
6 | 0.1 to 10 µM | 0.1 to 10 µM | 0.1 to 10 µM | 0.1 to 10 µM | Cn1ncc2c(-c3cccc4[nH]ncc34)nc(N3CCOCC3)nc21 [Compound A161, 4-(1H-indazol-4-yl)-1-methyl-6-morpholin-4-yl-1H-pyrazolo-[3,4-d]pyrimidine] | –
7 | 0.1 to 10 µM | 0.1 to 10 µM | 0.1 to 10 µM | 0.1 to 10 µM | Cn1ncc2c(-c3ccc(N)nc3)nc(N3CCOCC3)nc21 [Compound A193, 5-(1-methyl-6-morpholin-4-yl-1H-pyrazolo[3,4-d]pyrimidin-4-yl)pyridin-2-ylamine] | –
8 | 0.1 to 10 µM | > 10 µM | > 10 µM | 0.1 to 10 µM | Nc1ccc(-c2nc(N3CCOCC3)nc3c2cnn3CC(=O)N2CCCC2)cn1 [Compound A196] | –
9 | 0.1 to 10 µM | 0.1 to 10 µM | 0.1 to 10 µM | 0.1 to 10 µM | Cn1ncc2c(-c3cnc(N)nc3)nc(N3CCOCC3)nc21 [Compound A225, 5-(1-methyl-6-morpholin-4-yl-1H-pyrazolo[3,4-d]pyrimidin-4-yl)pyrimidin-2-ylamine] | –
10 | 0.1 to 10 µM | 0.1 to 10 µM | 0.1 to 10 µM | 0.1 to 10 µM | Nc1ncc(-c2nc(N3CCOCC3)nc3c2cnn3CC(=O)N2CCCC2)cn1 [Compound A228] | –
11 | 0.1 to 10 µM | 0.1 to 10 µM | 0.1 to 10 µM | 0.1 to 10 µM | Nc1ncc(-c2nc(N3CCOCC3)nc3c2cnn3CC(=O)N2CCOCC2)cn1 [Compound A229] | –
12 | 0.1 to 10 µM | 0.1 to 10 µM | 0.1 to 10 µM | 0.1 to 10 µM | CN1CCN(C(=O)Cn2ncc3c(-c4cnc(N)nc4)nc(N4CCOCC4)nc32)CC1 [Compound A231] | –
13 | – | – | – | – | O=c1cc(N2CCOCC2)oc2c(-c3ccccc3)cccc12 [LY294002] | 5 to 10 µM
